Results from patent publication US20260048047A1, “SMALL-MOLECULE ACTIVATORS OF MYCOBACTERIUM TUBERCULOSIS ADENYLYL CYCLASE” (priority 2022, published 2026).

The compounds below were run on M. tuberculosis (assay: Extracellular activity against M. tuberculosis in cholesterol media (Alamar Blue reduction assay)). Details: Mycobacterium tuberculosis, 240 h, 7H12-Cholesterol media, 10 days; read-out: Cholesterol broth: alamar blue--EC50.
Assay type: cell-based, Mycobacterium tuberculosis

Compound | EC50 [nM]
Cn1ncnc1CC(=O)N1CCC(c2nc(-c3ccc(C(F)F)cc3)no2)CC1 [Compound 172, 1-(4-(3-(4-(difluoromethyl)phenyl)-1,2,4-oxadiazol-5-yl)piperidin-1-yl)-2-(1-methyl-1H-1,2,4-triazol-5-yl)ethan-1-one] | 2070
Cn1ncnc1CC(=O)N1CCC(c2noc(C34CC(F)(C3)C4)n2)CC1 [Compound 173, 1-(4-(5-(3-fluorobicyclo[1.1.1]pentan-1-yl)-1,2,4-oxadiazol-3-yl)piperidin-1-yl)-2-(1-methyl-1H-1,2,4-triazol-5-yl)ethan-1-one] | > 10000
Cn1ncnc1CC(=O)N1CCC(c2nc(-c3ccc(CF)cc3)no2)CC1 [Compound 174, 1-(4-(3-(4-(fluoromethyl)phenyl)-1,2,4-oxadiazol-5-yl)piperidin-1-yl)-2-(1-methyl-1H-1,2,4-triazol-5-yl)ethan-1-one] | 2260
Cn1ncnc1CC(=O)N1CCC(c2nc(-c3ccc(S(F)(F)(F)(F)F)cc3)no2)CC1 [Compound 175, 2-(1-methyl-1H-1,2,4-triazol-5-yl)-1-(4-(3-(4-(pentafluoro-16-sulfaneyl)phenyl)-1,2,4-oxadiazol-5-yl)piperidin-1-yl)ethan-1-one] | 1630
Cn1ncnc1CC(=O)N1CCC(c2nc(-c3ccc(Cl)c(F)c3)no2)CC1 [Compound 176, 1-(4-(3-(4-chloro-3-fluorophenyl)-1,2,4-oxadiazol-5-yl)piperidin-1-yl)-2-(1-methyl-1H-1,2,4-triazol-5-yl)ethan-1-one] | 115
Cn1ncnc1CC(=O)N1CCC(n2nnc(-c3ccc(Cl)c(F)c3)n2)CC1 [Compound 177, 1-(4-(5-(4-chloro-3-fluorophenyl)-2H-tetrazol-2-yl)piperidin-1-yl)-2-(1-methyl-1H-1,2,4-triazol-5-yl)ethan-1-one] | 170
Cn1ncnc1CC(=O)N1CCC(c2nc(-c3ccc(Cl)cc3F)no2)CC1 [Compound 178, 1-(4-(3-(4-chloro-2-fluorophenyl)-1,2,4-oxadiazol-5-yl)piperidin-1-yl)-2-(1-methyl-1H-1,2,4-triazol-5-yl)ethan-1-one] | 200
Cn1ncnc1CC(=O)N1CCC(c2nc(-c3ccc(F)cc3Cl)no2)CC1 [Compound 179, 1-(4-(3-(2-chloro-4-fluorophenyl)-1,2,4-oxadiazol-5-yl)piperidin-1-yl)-2-(1-methyl-1H-1,2,4-triazol-5-yl)ethan-1-one] | 1970
Cn1ncnc1CC(=O)N1CCC(c2nc(-c3ccc(F)cc3F)no2)CC1 [Compound 180, 1-(4-(3-(2,4-difluorophenyl)-1,2,4-oxadiazol-5-yl)piperidin-1-yl)-2-(1-methyl-1H-1,2,4-triazol-5-yl)ethan-1-one] | 480
Cn1ncnc1CC(=O)N1CCC(c2nc(-c3ccc(F)c(C(F)(F)F)c3)no2)CC1 [Compound 181] | 467
Cn1ncnc1CC(=O)N1CCC(n2nnc(-c3ccc(F)c(Cl)c3)n2)CC1 [Compound 182, 1-(4-(5-(3-chloro-4-fluorophenyl)-2H-tetrazol-2-yl)piperidin-1-yl)-2-(1-methyl-1H-1,2,4-triazol-5-yl)ethan-1-one] | 370
Cn1ncnc1CC(=O)N1CCC(c2nc(-c3ccc(F)c(Cl)c3)no2)CC1 [Compound 183, 1-(4-(3-(3-chloro-4-fluorophenyl)-1,2,4-oxadiazol-5-yl)piperidin-1-yl)-2-(1-methyl-1H-1,2,4-triazol-5-yl)ethan-1-one] | 210
Cn1ncnc1CC(=O)N1CCC(c2nc(-c3ccc(F)c(F)c3)no2)CC1 [Compound 184, 1-(4-(3-(3,4-difluorophenyl)-1,2,4-oxadiazol-5-yl)piperidin-1-yl)-2-(1-methyl-1H-1,2,4-triazol-5-yl)ethan-1-one] | 458
Cn1ncnc1CC(=O)N1CCC(n2nnc(-c3ccc(F)c(F)c3)n2)CC1 [Compound 185, 1-(4-(5-(3,4-difluorophenyl)-2H-tetrazol-2-yl)piperidin-1-yl)-2-(1-methyl-1H-1,2,4-triazol-5-yl)ethan-1-one] | 740
Cn1ncnc1CC(=O)N1CCC(c2nc(-c3ccc(F)cc3)no2)CC1 [Compound 186, 1-(4-(3-(4-fluorophenyl)-1,2,4-oxadiazol-5-yl)piperidin-1-yl)-2-(1-methyl-1H-1,2,4-triazol-5-yl)ethan-1-one] | 480
Cn1ncnc1CC(=O)N1CCC(n2nnc(-c3ccc(F)cc3)n2)CC1 [Compound 187, 1-(4-(5-(4-fluorophenyl)-2H-tetrazol-2-yl)piperidin-1-yl)-2-(1-methyl-1H-1,2,4-triazol-5-yl)ethan-1-one] | 3070
Cn1nnnc1CC(=O)N1CCC(c2nc(-c3ccc(F)cc3)no2)CC1 [Compound 188, 1-(4-(3-(4-fluorophenyl)-1,2,4-oxadiazol-5-yl)piperidin-1-yl)-2-(1-methyl-1H-tetrazol-5-yl)ethan-1-one] | 6330

Compound | EC50 [nM]
Cc1noc(CC(=O)N2CC3CC2CC3c2nc(C3CCCCC3)no2)n1 (stereo not shown) [Compound 189, 1-(5-(3-cyclohexyl-1,2,4-oxadiazol-5-yl)-2-azabicyclo[2.2.1]heptan-2-yl)-2-(3-methyl-1,2,4-oxadiazol-5-yl)ethan-1-one] | > 10000
Cc1noc(CC(=O)N2CC3CC2CC3c2nc(-c3ccc(Cl)c(Cl)c3)no2)n1 (stereo not shown) [Compound 190, 1-(5-(3-(3,4-dichlorophenyl)-1,2,4-oxadiazol-5-yl)-2-azabicyclo[2.2.1]heptan-2-yl)-2-(3-methyl-1,2,4-oxadiazol-5-yl)ethan-1-one] | 2900
Cc1noc(CC(=O)N2CC3CC2CC3c2nc(C3CCC(F)(F)CC3)no2)n1 (stereo not shown) [Compound 191, 1-(5-(3-(4,4-difluorocyclohexyl)-1,2,4-oxadiazol-5-yl)-2-azabicyclo[2.2.1]heptan-2-yl)-2-(3-methyl-1,2,4-oxadiazol-5-yl)ethan-1-one] | > 10000
Cc1noc(CC(=O)N2CC3CC2CC3c2nc(-c3ccc(F)c(F)c3)no2)n1 (stereo not shown) [Compound 192, 1-(5-(3-(3,4-difluorophenyl)-1,2,4-oxadiazol-5-yl)-2-azabicyclo[2.2.1]heptan-2-yl)-2-(3-methyl-1,2,4-oxadiazol-5-yl)ethan-1-one] | > 10000
Cc1noc(CC(=O)N2CC3CC2CC3c2nc(-c3ccc(F)cc3)no2)n1 (stereo not shown) [Compound 193, 1-(5-(3-(4-fluorophenyl)-1,2,4-oxadiazol-5-yl)-2-azabicyclo[2.2.1]heptan-2-yl)-2-(3-methyl-1,2,4-oxadiazol-5-yl)ethan-1-one] | > 10000
Cc1nonc1CC(=O)N1CC2CC1CC2c1nc(C2CCCCC2)no1 (stereo not shown) [Compound 194, 1-(5-(3-cyclohexyl-1,2,4-oxadiazol-5-yl)-2-azabicyclo[2.2.1]heptan-2-yl)-2-(4-methyl-1,2,5-oxadiazol-3-yl)ethan-1-one] | 790
Cc1nonc1CC(=O)N1CC2CC1CC2c1nc(-c2ccc(Cl)c(Cl)c2)no1 (stereo not shown) [Compound 195, 1-(5-(3-(3,4-dichlorophenyl)-1,2,4-oxadiazol-5-yl)-2-azabicyclo[2.2.1]heptan-2-yl)-2-(4-methyl-1,2,5-oxadiazol-3-yl)ethan-1-one] | 94
Cc1nonc1CC(=O)N1CC2CC1CC2c1nc(C2CCC(F)(F)CC2)no1 (stereo not shown) [Compound 196, 1-(5-(3-(4,4-difluorocyclohexyl)-1,2,4-oxadiazol-5-yl)-2-azabicyclo[2.2.1]heptan-2-yl)-2-(4-methyl-1,2,5-oxadiazol-3-yl)ethan-1-one] | 1250
Cc1nonc1CC(=O)N1CC2CC1CC2c1nc(C2CCC(F)C2)no1 (stereo not shown) [Compound 197, 1-(5-(3-(3-fluorocyclopentyl)-1,2,4-oxadiazol-5-yl)-2-azabicyclo[2.2.1]heptan-2-yl)-2-(4-methyl-1,2,5-oxadiazol-3-yl)ethan-1-one] | 15500
Cc1nonc1CC(=O)N1CC2CC1CC2c1nc(-c2ccc(F)c(F)c2)no1 (stereo not shown) [Compound 198, 1-(5-(3-(3,4-difluorophenyl)-1,2,4-oxadiazol-5-yl)-2-azabicyclo[2.2.1]heptan-2-yl)-2-(4-methyl-1,2,5-oxadiazol-3-yl)ethan-1-one] | 247
Cc1nonc1CC(=O)N1CC2CC1CC2c1nc(-c2ccc(F)cc2)no1 (stereo not shown) [Compound 199, 1-(5-(3-(4-fluorophenyl)-1,2,4-oxadiazol-5-yl)-2-azabicyclo[2.2.1]heptan-2-yl)-2-(4-methyl-1,2,5-oxadiazol-3-yl)ethan-1-one] | 324
Cn1ncnc1CC(=O)N1CC2CC1CC2c1nc(-c2ccc(Cl)cc2)no1 (stereo not shown) [Compound 200, 1-(5-(3-(4-chlorophenyl)-1,2,4-oxadiazol-5-yl)-2-azabicyclo[2.2.1]heptan-2-yl)-2-(1-methyl-1H-1,2,4-triazol-5-yl)ethan-1-one] | 370
Cn1ncnc1CC(=O)N1CC2CC1CC2c1nc(-c2ccc(Cl)c(F)c2)no1 (stereo not shown) [Compound 201, 1-(5-(3-(4-chloro-3-fluorophenyl)-1,2,4-oxadiazol-5-yl)-2-azabicyclo[2.2.1]heptan-2-yl)-2-(1-methyl-1H-1,2,4-triazol-5-yl)ethan-1-one] | 200
Cn1ncnc1CC(=O)N1CC2CC1CC2c1nc(-c2ccc(Cl)cc2F)no1 (stereo not shown) [Compound 204, 1-(5-(3-(4-chloro-2-fluorophenyl)-1,2,4-oxadiazol-5-yl)-2-azabicyclo[2.2.1]heptan-2-yl)-2-(1-methyl-1H-1,2,4-triazol-5-yl)ethan-1-one] | 740
Cn1ncnc1CC(=O)N1CC2CC1CC2c1nc(-c2ccc(F)cc2)no1 (stereo not shown) [Compound 205, 1-(5-(3-(4-fluorophenyl)-1,2,4-oxadiazol-5-yl)-2-azabicyclo[2.2.1]heptan-2-yl)-2-(1-methyl-1H-1,2,4-triazol-5-yl)ethan-1-one] | 1600
Cc1noc(CC(=O)N2CC3CC(C2)C3c2nc(-c3ccc(Cl)c(Cl)c3)no2)n1 (stereo not shown) [Compound 206, 1-(6-(3-(3,4-dichlorophenyl)-1,2,4-oxadiazol-5-yl)-3-azabicyclo[3.1.1]heptan-3-yl)-2-(3-methyl-1,2,4-oxadiazol-5-yl)ethan-1-one] | > 10000
Cc1noc(CC(=O)N2CC3CC(C2)C3c2nc(C3CCC(F)(F)CC3)no2)n1 (stereo not shown) [Compound 207, 1-(6-(3-(4,4-difluorocyclohexyl)-1,2,4-oxadiazol-5-yl)-3-azabicyclo[3.1.1]heptan-3-yl)-2-(3-methyl-1,2,4-oxadiazol-5-yl)ethan-1-one] | > 10000
